{"source": "paper PMC7921374", "about": "“In vitro antifungal activity of pelgipeptins against human pathogenic fungi and Candida albicans biofilms” (AIMS Microbiology, 2021)", "assay_type_in_all_cases": "cell-based", "key": {"[1]": {"system": "Candida albicans SC 5314 biofilms", "experiment": "Inhibition of early-phase biofilm (XTT)", "details": "antimicrobial added after 4 hours of yeast growth, planktonic cells removed, A490, 80% decrease, triplicate, at least twice", "description": "(§1) The effects of the pelgipeptins on C. albicans biofilms were analyzed according to the protocol described by Pierce et al.. Briefly, 2 × 10^6 cells/mL of C. albicans SC 5314 were inoculated on 96-well polystyrene microplates. The inhibition of biofilm formation was also evaluated by adding antimicrobials (lipopeptides, fluconazole, or amphotericin B) at the same time as the yeast inoculum. Furthermore, the inhibition of early-phase biofilms was assessed after 4 hours of yeast growth by removing the planktonic cells and adding the antimicrobials (lipopeptides or amphotericin B). For the investigation of the effects of peptides on mature biofilms, the Candida cells were allowed to grow for 24 h when planktonic cells were removed, and the antimicrobials were added to the culture and incubated for another 24 h at 37 °C.\n(§2) The biofilm viability was analyzed by the metabolic assay on the basis of the reduction of 2,3-bis-(2-methoxy-4-nitro-5-sulfophenyl)-2H-tetrazolium-5-carboxanilide (XTT) and absorbance reading at 490 nm. […] The sessile minimal inhibitory concentrations (SMICs) were also determined at 80% (SMIC80) and 50% (SIMIC50) decrease in absorbance at 490 nm in comparison with the control biofilms growing in the absence of the drug, as previously described."}, "[2]": {"system": "Candida albicans SC 5314 biofilms", "experiment": "Inhibition of initial biofilm formation (XTT)", "details": "antimicrobial added at same time as yeast inoculum (2 × 10^6 cells/mL), XTT reduction, A490, 80% decrease vs control biofilm, triplicate, at least twice", "description": "as §1, §2"}, "[3]": {"system": "Candida albicans SC 5314 biofilms", "experiment": "Inhibition of mature biofilms (XTT)", "details": "biofilm grown 24 h, planktonic cells removed, antimicrobial for another 24 h at 37 °C, triplicate, at least twice", "description": "as §1, §2"}, "[4]": {"system": "Paracoccidioides brasiliensis Pb18", "experiment": "microbe, parasite or virus in culture", "description": "(§3) The isolated pelgipeptin isoforms were tested against the reference clinical strains of Candida albicans SC 5314 (ATCC MYA-2876), Candida glabrata ATCC 90030, Cryptococcus neoformans H99 (ATCC 208821), and Paracoccidioides brasiliensis PB18, a Brazilian clinical isolate. All the isolates were obtained from the mycology collection of the University of Brasilia (Department of Cell Biology). Before each experiment, both Candida spp. strains were grown in Sabouraud's dextrose broth (Himedia) overnight at 30 °C/200 rpm. In addition, the C. neoformans cells were grown in the same conditions for 24 h. P. brasiliensis strains were also grown in GPY medium (2% glucose w/v, 1% peptone w/v, 0.5% yeast extract w/v, and 2% agar w/v), at 37 °C, for 5 days. The fungal cells were collected by centrifugation, washed thrice in phosphate buffered saline (PBS) (NaCl, 137 mM; KCl, 2.7 mM; Na2HPO4, 10 mM; KH2PO4, 2 mM), and inoculated in RPMI 1640 medium (Thermo-Fisher Scientific) supplemented with L-glutamine and buffered to pH 7.0 with 165 mM of 3-(N-morpholino) propanesulfonic acid.\n(§4) The in vitro antifungal assays were performed according to the broth microdilution susceptibility test from the Clinical and Laboratory Standards Institute M27-A4 guidelines with modifications. Briefly, the twofold serial dilutions of each pelgipeptin were prepared in 96-well polystyrene microplates to a final volume of 50 µL. Fluconazole, an antifungal employed in the treatment of mycosis caused by Candida spp, Cryptococcus spp, and Paracoccidioides spp, was used as a control (Sigma-Aldrich). We also utilized polymyxin B (Sigma-Aldrich), another bacterial lipopeptide, in our assays due to some works that show its antifungal activity,[28]. The final concentrations of each lipopeptide and control ranged from 1 to 128 µg/mL, and the negative controls without peptide were used to assess fungal growth. Subsequently, 50 µL of the inoculum adjusted on RPMI-1640 medium was added to each well to a final concentration of 2 × 10^3 cells/mL for Candida spp. and 10^4 cells/mL for C. neoformans or P. brasiliensis strains. The microplates were incubated at 37 °C for 24, 48, or 72 h. In addition, the strains of C. neoformans were incubated with shaking at 200 rpm.\n(§5) The MICs of the pelgipeptins against P. brasiliensis were determined using the microplate AlamarBlue Cell Viability Assay. This assay uses a resazurin-based solution to indicate cell viability, which was evaluated by fluorometric readings in a fluorescence plate reader with excitation at 550 nm and emission at 585 nm (SpectraMax® M plate reader). The experiments were performed in triplicates at least thrice on separate dates."}, "[5]": {"system": "Candida glabrata ATCC 90030", "experiment": "microbe, parasite or virus in culture", "details": "broth microdilution CLSI M27-A4 modified, RPMI 1640 pH 7.0, 2 × 10^3 cells/mL, 37 °C, complete inhibition of visible growth, triplicates, at least thrice", "description": "as §3, §4, §5"}, "[6]": {"system": "Cryptococcus neoformans H99", "experiment": "microbe, parasite or virus in culture", "details": "broth microdilution CLSI M27-A4 modified, RPMI 1640 pH 7.0, 10^4 cells/mL, 37 °C, shaking 200 rpm, lowest concentration completely inhibiting visible growth, triplicates, at least thrice", "description": "as §3, §4, §5"}, "Candida albicans SC5314": {"system": "Candida albicans SC5314", "experiment": "microbe, parasite or virus in culture", "details": "broth microdilution CLSI M27-A4 modified, RPMI 1640 pH 7.0, 2 × 10^3 cells/mL, 37 °C, complete inhibition of visible growth, triplicates, at least thrice", "description": "as §3, §4, §5"}}, "note": "Where a SMILES comes first, the peptide text is derived from it. Bridges are numbered along the chain shown (N, C = ends). [ ]: non-standard residue; d: D form. The star is where a group is joined. X1 = CC[C@H](C)CCCCC(=O)*; Dab = NCC[C@H](N)C(=O)O"}
{"smiles": "C[C@@H]1[C@H](O)[C@@H](C)/C=C/C=C/C=C/C=C/C=C/C=C/C=C/[C@H](O[C@@H]2O[C@H](C)[C@@H](O)[C@H](N)[C@@H]2O)C[C@@H]2O[C@](O)(C[C@@H](O)C[C@@H](O)[C@H](O)CC[C@@H](O)C[C@@H](O)CC(=O)O[C@H]1C)C[C@H](O)[C@H]2C(=O)O", "note": "[Amphotericin B]", "values": [{"measurement": "Inhibition of early-phase biofilm SMIC80", "setting": "[1]", "result": "<0.5", "unit": "µg/mL"}, {"measurement": "Inhibition of early-phase biofilm SMIC80", "setting": "[1]; listed as amphotericin B", "result": "lower than 0.5 µg/mL"}, {"measurement": "Inhibition of initial biofilm formation SMIC80", "setting": "[2]", "result": "<0.5", "unit": "µg/mL"}, {"measurement": "Inhibition of initial biofilm formation SMIC80", "setting": "[2]; listed as amphotericin B", "result": "lower than 0.5 µg/mL"}, {"measurement": "Inhibition of mature biofilms SMIC50", "setting": "[3]; A490, 50% decrease", "result": 0.5, "unit": "µg/mL"}, {"measurement": "Inhibition of mature biofilms SMIC80", "setting": "[3]; A490, 80% decrease", "result": 4, "unit": "µg/mL"}]}
{"smiles": "OC(Cn1cncn1)(Cn1cncn1)c1ccc(F)cc1F", "note": "[Fluconazole]", "values": [{"measurement": "MIC", "setting": "[4]; Paracoccidioides brasiliensis, PB18, pH 7, read-out: MIC Paracoccidioides brasiliensis Pb18", "result": 2, "unit": "µg/mL"}, {"measurement": "MIC", "setting": "[5]; Nakaseomyces glabratus, ATCC90030", "result": 32, "unit": "µg/mL"}, {"measurement": "MIC", "setting": "[6]; Cryptococcus neoformans, H99", "result": 2, "unit": "µg/mL"}, {"measurement": "MIC", "setting": "Candida albicans SC5314; Candida albicans, SC5314", "result": 16, "unit": "µg/mL"}]}
{"smiles": "CC[C@H](C)CCCCC(=O)N[C@@H](CCN)C(=O)N[C@H](C(=O)N[C@@H](CCN)C(=O)N[C@H]1CCNC(=O)[C@H]([C@@H](C)O)NC(=O)[C@H](CCN)NC(=O)[C@H](CCN)NC(=O)[C@H](CC(C)C)NC(=O)[C@@H](Cc2ccccc2)NC(=O)[C@H](CCN)NC1=O)[C@@H](C)O", "note": "[Polymyxin B, polymyxin B] (X1-[Dab]T[Dab][Dab][Dab][dF]L[Dab][Dab]T; lactam 4-C (inferred); N-terminus assumed)", "values": [{"measurement": "MIC Paracoccidioides brasiliensis Pb18", "setting": "[4]; broth microdilution, RPMI 1640 pH 7.0 (MOPS), 10^4 cells/mL, 37 °C, AlamarBlue fluorescence (ex 550/em 585 nm), triplicates, at least thrice", "result": "> 1024", "unit": "µg/mL"}, {"measurement": "MIC Candida glabrata 90030", "setting": "[5]", "result": 512, "unit": "µg/mL"}, {"measurement": "MIC Cryptococcus neoformans H99", "setting": "[6]", "result": 8, "unit": "µg/mL"}, {"measurement": "MIC Candida albicans SC5314", "setting": "Candida albicans SC5314", "result": 256, "unit": "µg/mL"}]}
